Values quoted from earlier work as cited in publication PMC5963526 (Biochimica et biophysica acta, 2018).

For CC(C)(C)[N+]([O-])=Cc1ccccc1 [PBN, a-phenyl-N-tert-butylnitrone], which “protection against LIRD” value (rats) is on record?
The value was “complete protection”.

For CC1=C(/C=C/C(C)=C/C=C/C(C)=C\C(=O)O)C(C)(C)CCC1 [13-cis-retinoic acid], which “protection of the retina from light damage” value (retina) is on record?
The value was “protects the retina from light damage”.
